This is an account of results in patent EP1640447A1, “BIOACTIVE PEPTIDE-PRODUCING STRAINS OF i ENTEROCOCCUS FAECALIS /i , BIOACTIVE PEPTIDES AND APPLICATIONS THEREOF” (Grupo Leche Pascual S.A., priority 2003, dated 2004).

The test system of assay [1] is spontaneously hypertensive rats (SHR). The experiment in a line: Blood pressure (tail cuff) after acute intragastric administration in spontaneously hypertensive rats. Format: in vivo. To be noted: Captopril 50 mg/kg; for variation of diastolic blood pressure / variation of systolic blood pressure: mean ± standard error. On the procedure: (§1) Male SHR and WKY rats of 17-20 weeks of age and weight comprised between 250 and 300 g were used, obtained from Charles River Laboratories Espana S.A.. The rats were kept at a stable ambient temperature of 23°C and with 12 hour light-dark cycles, taking water and food at will. The measurement of blood pressure in these animals was carried out by means of a modification of the tail cuff technique, originally disclosed by Buñag (Buñag RD. 1973. J Appl Physiol 34:79). This technique usually allows obtaining only systolic blood pressure (SBP) measurements; however, the equipment used in this study (Le50001 Letica model) allows differentiating the SBP and the diastolic blood pressure (DBP) of the animals, as it automatically provides the digital value of both parameters. For this reason the modification of the SBP and the DBP produced by the acute administration of the fermented milks and the peptides were tested in this study. Before placing the cuff on the tails of the rats, these were exposed to a temperature close to 30°C in order to facilitate the dilation of the caudal artery, and they were lightly anaesthetized with diethyl ether according to the process disclosed by Dietz et al. (Dietz R, Schömig A, Haebara H et al. 1978. Circ Res 43: I98-I106) in order to minimize the effect of stress on the measurement. Furthermore, in order to ensure the reliability of the measurement, the animals were familiarized with the process 2 weeks prior to performing the test in question.
The administration of the products to be tested was performed by means of intragastric probe in a time margin comprised between 9 and 10 am. The SHR rats used for the study had at that time SBP and DBP values comprised respectively between 240 and 290 mm Hg, and between 200 and 250 mm Hg. The WKY rats used for the study had at that time SBP and DBP values comprised respectively between 160 and 200 mm Hg, and between 100 and 140 mm Hg. SBP and DBP measurements were taken periodically in the animals, every 2 hours, up to 8 hours post-administration of the products to be tested; an additional measurement of both variables (SBP and DBP) was taken 24 hours after administration of said products.
In the case of the fermented milks, the supernatant (whey) obtained by centrifugation at 20,000 x g for 10 minutes of the milk fermented and pasteurized at 75°C for 1 minute following the process described in Example 2 was used as an administration product. From the corresponding supernatant a single administration of 5 mL/kg of animal body weight was used.
In the tests with peptide SEQ. ID. NO: 1 a single administration was also performed, and the dose used (2 mg/kg) was equivalent in ACEI activity units to the 5 mL/kg dose of supernatant of the milks fermented by E. faecalis CECT 5727, E. faecalis CECT 5728, E. faecalis CECT 5826 and E. faecalis CECT 5827. […] The most significant results were obtained with the peptide identified by SEQ. ID. NO: 1.
As a negative control (to establish the circadian variation of the SBP and the DBP in probed rats) the measurements obtained in rats that were administered 1 mL of water by intragastric probe were used. As a positive control (to establish the effect on the SBP and the DBP of a prototype ACEI drug, such as Captopril) the measurements of […] obtained in that were administered 50 mg /kg of Captopril by intragastric probe were used. This dose of Captopril was administered to each rat in a volume of 1 mL.
The results obtained were grouped and the mean ± standard error of the mean (SEM) for a minimum of 7 homogeneous tests was obtained. The data from treated animals was contrasted to one another and with the data considered as negative control. […]

For assay [2], the system named is Wistar-Kyoto rats (WKY). Kind of assay: Blood pressure (tail cuff) after acute intragastric administration in normotensive Wistar-Kyoto rats. Format: in vivo. To be noted: whey 5 mL/kg, Captopril 50 mg/kg, LSD test at each time. On the procedure:
as §1, with “Furthermore, in order to ensure the reliability of the measurement, the animals were familiarized with the process 2 weeks prior to performing the test in question.” left out

Where [3] appears, read: Time 2 h after single intragastric administration, whey 5 mL/kg.
Setting [4] is: Time 4 h after single intragastric administration, whey 5 mL/kg.
Setting [5] is: Time 6 h after single intragastric administration, whey 5 mL/kg.
Setting [6] is: Time 8 h after single intragastric administration, whey 5 mL/kg.
Setting [7] is: Time 24 h after single intragastric administration, whey 5 mL/kg.
Setting [8] is: single intragastric administration, whey 5 mL/kg, peptide 2 mg/kg.

Molecules are shown by their SMILES. Marks after values point to notes of the source that are not given here.

Turning to `C[C@H](CS)C(=O)N1CCC[C@H]1C(=O)O` [Captopril], in assay [1] (peptide 2 mg/kg, intragastric), the “time after administration of maximum reduction / smallest values of DBP” value was 4 h. Moreover, the “time after administration of maximum reduction / smallest values of SBP” value in assay [1] (whey 5 mL/kg, peptide 2 mg/kg, intragastric) worked out at 6 h. For the same compound, the “variation of diastolic blood pressure” value was -28.29±2.40^a in assay [1] (setting [3]); -34.90±5.34^a in assay [1] (setting [4]); -28.63±5.77^a in assay [1] (setting [5]); -26.67±7.94^a in assay [1] (setting [6]); 1.37±1.02^a in assay [1] (setting [7]). In addition, the “variation of systolic blood pressure” value in assay [1] (setting [3]) is given as -36.08±4.52^a; in assay [1] (setting [4]), -51.98±5.36^a; in assay [1] (setting [5]), -54.19±5.11^a; in assay [1] (setting [6]), -35.44±4.70^a; in assay [1] (setting [7]), 1.23±1.49^a. The “reduction in DBP (in words)” value in assay [1] (setting [8]) is listed as “pronounced reduction”. In addition, the “reduction in SBP (in words)” value in assay [1] (setting [8]) is recorded as “pronounced reduction”. Also, the “changes in DBP” value in assay [2] was “no significant differences”. Further, the “changes in SBP” value in assay [2] is “no significant differences”.
